The values that follow come from patent publication US20090074722A1, “Products and methods for treating PTP lar diseases” (MAX-PLANCK-GESELLSCHAFT ZUR, priority 1999, published 2009).

The subject of experiment [1] is NBT II cells. Kind of experiment: In vitro wound assay (migration of NBT II cells). Type of experiment: cell-based, rat. As for the experimental part: FIGS. 1A and 1B show the migration of epithelial NBT II cells under varying conditions. […] Twenty-four hours after plating, the confluent cell monolayer was scratched as described in the Examples. EGF (100 ng/mL) or Ultroser G (2%) were added. Wound closure was documented by photography. The calibration bar indicates 80 pn. Migration Assays-For in vitro wound assays, NBT II cells were plated at a density of 7×10^4 cells/cm^2. After 24 hours the confluent monolayer was scratched with a pipette tip to create a cell free area, growth factors were added, and wound closure was documented by photography. For scatter assays, cells were plated at a cell density of 1×10^4 cells/cm^2. Growth factors were added after 24 hours, and the morphology of cells and the dispersion of small colonies were documented by photography. Quantification of migration was performed by counting single cells with fibroblastoid migration morphology compared to cells in groups with epithelial morphology in different, randomly chosen microscopic fields. 1000 cells per dish were counted. All migration assays were performed in triplicate. Tyrosine kinases (TK), mitogen-activated protein kinase (MAPK) or phosphatidylinositol-3-kinase (Pl3K), were inhibited by Genistein (250 μM; Biomol), added one hour before addition of the growth factors. As a control, the solvent DMSO was used. DNA synthesis was inhibited by the specific inhibitor of DNA polymerase, α Aphidicolin (1.5 μM; Serva) 1 hour before adding the growth factors. Migration of epithelial cells in tissue culture represents in many aspects a model system of the epithelial-mesenchymal transition ([…], et al. (1994) Int. Rev. Cytol. 155, 49-9). The rat bladder carcinoma cell line NBT II (Toyoshima, et al. (1971) J. Nat. Cancer Inst. 47, 979-985) was used, since certain growth factors and components of the extracellular matrix (ECM) induce migration of these cells (Valles, et al. (1990) Proc. Natl. Acad. Sci. USA 87, 1124-1128; Tchao, R. (1982) Cell Motil. 4, 333-341; Tucker, et al. (1990) Cancer Res. 50, 129-137).

Experiment [2] concerns β-catenin and plakoglobin. The experiment in a line: Tyrosine phosphorylation of β-catenin and plakoglobin in migrating NBT II cells (immunoprecipitation, Western blot). Type of experiment: cell-based, rat. The settings on record: pretreatment with 1 mM Na-orthovanadate. The method, then: NBT II cells were plated at a density of 1×10^4 cells/cm^2. Twenty-four hours later growth factors were added to induce migration (EGF: 100 ng/mL; aFGF: 30 ng/mL including 50 μg/mL heparin; Ultroser G: 2%). Ninety minutes before lysis, Na-orthovanadate (1 mM) was added (right) or not (left). As a positive control, cells were treated for 10 minutes with pervanadate. After lysis the cadherin/catenin complex was immunoprecipitated and precipitates were separated by SDS-PAGE. Tyrosine phosphorylation levels were analyzed by Western blotting with an anti-phosphotyrosine antibody (top). The membranes were reprobed with specific antibodies to E-cadherin (middle) or the catenins (bottom) to assure equal amounts of precipitated proteins. Highly tyrosine phosphorylated β-catenin (as hereafter pervanadate treatment) was not efficiently immunodecorated in the reblot. Arrows indicate the proteins of interest. Molecular mass standards in kilodaltons are shown on the left.
Transient Expression, Cell Lysis, and Immunoprecipitation—Transient transfection of human 293 embryonic kidney cells was performed as described (Chen, et al. (1987) Mol. Cell. Biol. 7, 2745-2752, hereby incorporated herein by reference in its entirety, including any drawings, figures, or tables). For biochemical analysis, NBT II cells were plated at a density of 1×10^4 cells/cm^2 at the day before lysis. […]
(In general: A western blot detects proteins with antibodies after separation by electrophoresis.)

For experiment [3], the system named is free, uncomplexed β-catenin. Kind of experiment: Affinity precipitation of free β-catenin with GST-E-cadherin cytoplasmic fusion protein. Type of experiment: cell-based, rat. The settings on record: EGF 100 ng/mL. The method, then:
NBT II cells were plated at a density of 1×10^4 cells/cm^2. Twenty-four hours later EGF (100 ng/mL) was added for the indicated time intervals. 30 minutes before lysis Na-orthovanadate (1 mM) was added. Subsequently affinity precipitations were performed with 5 μg of a GST/E-cadherin cytoplasmic protein or GST in a three-fold molar excess. Proteins were separated by SDS-PAGE, and the levels of free, uncomplexed β-catenin were analyzed by Western blotting with an anti-β-catenin-antibody (top). […] Note that in comparison to FIG. 2, cells were pretreated for only 30 minutes with Na-orthovanadate. Arrows indicate the proteins of interest. Molecular mass standards in kilodaltons are shown on the left.
NBT II cells infected with the empty vector pLXSN (left) or human PTP LAR (right) were plated at 1×10^4 cells/cm^2 and stimulated after 24 h with EGF (100 ng/mL) for the indicated time intervals. Na-orthovanadate pretreatment was omitted to avoid irreversible inhibition of protein tyrosine phosphatase activity. Cells were lysed and in vitro associations were performed with 5 μg of the GST-E-cadherin cytoplasmic protein or GST in a three-fold molar excess. Proteins were separated by SDS-PAGE, and the levels of free, uncomplexed β-catenin were analyzed by Western blotting with an anti-β-catenin antibody (top). […] Arrows indicate the proteins of interest. […]

Experiment [4] deals with NBT II cells. Kind of experiment: Scatter assay of NBT II cells after EGF treatment. Type of experiment: cell-based, rat. The settings on record: ectopic expression, about twice the PTP LAR expression of parental cells; EGF 100 ng/mL. The method, then: FIGS. 7A and 7B show a scatter assay of NBT II pLXSN and NBT II hPTP LAR cells. In FIG. 7A, NBT II cells infected with the empty vector pLXSN (left) or human PTP LAR (right) were plated at 1×10^4 cells/cm^2 and stimulated 24 h later with EGF (100 ng/mL) as indicated. After 7 h, the migration morphology was documented by photography.
To this end, 1000 cells per dish from randomly chosen microscopic fields were counted; assays were performed in triplicate. A cell was judged as a migrating cell when it had changed from a cobblestone-like, epithelial morphology to a migrating, fibroblastoid phenotype.
Migration Assays—For in vitro wound assays, NBT II cells were plated at a density of 7×10^4 cells/cm^2. After 24 hours the confluent monolayer was scratched with a pipette tip to create a cell free area, growth factors were added, and wound closure was documented by photography. For scatter assays, cells were plated at a cell density of 1×10^4 cells/cm^2. Growth factors were added after 24 hours, and the morphology of cells and the dispersion of small colonies were documented by photography. Quantification of migration was performed by counting single cells with fibroblastoid migration morphology compared to cells in groups with epithelial morphology in different, randomly chosen microscopic fields. 1000 cells per dish were counted. All migration assays were performed in triplicate. […]

Experiment [5] deals with NBT II cells. Kind of experiment: Tumor formation in nude mice. Type of experiment: in vivo, Swiss nude mice. The settings on record: NBT II hPTP LAR cells injected subcutaneously into flank, 2×10^6/50 μL. The method, then: NBT II cells, infected with the empty vector pLXSN (filled triangle) or human PTP LAR (filled square), were injected (2×10^6/50 μL) subcutaneously into the flank region of Swiss nude mice. Tumor formation was monitored.
Tumor formation in Nude Mice—NBT II cells were resuspended at a cell density of 2×10^6/50 μL in MEM and injected subcutaneously into the flank region of Swiss nude mice (IGR Villejuif, Paris, France). Tumor formation was monitored by measuring the width (W) and length (L) of the tumors with W<L. The tumor volume was calculated according to the formula (W^2×L×π/6). Assays were performed at least in triplicate.

In experiment [6] the test system is NBT II cells. Kind of experiment: DNA-synthesis and proliferation rate of NBT II-hPTP LAR cell lines. The settings on record: ectopic expression in NBT II cells. Type of experiment: cell-based, rat.
[7] abbreviates: inhibition of PI3K or MAPK, concentration not given.

As to `C[C@@]1(CO)[C@H](O)CC[C@@]2(C)[C@H]1CC[C@H]1C[C@@H]3C[C@@]12CC[C@]3(O)CO` [Aphidicolin], the “effect on cell migration (wound closure)” value in the experiment on NBT II cells [1] (Aphidicolin 1.5 μM, added 1 hour before the growth factors, inhibition of DNA-synthesis) is “did not interfere with migration”.
For `O=c1c(-c2ccc(O)cc2)coc2cc(O)cc(O)c12` [Genistein], in the experiment on NBT II cells [1] (Genistein 250 μM, added one hour before the growth factors, inhibition of tyrosine kinases), the “effect on cell migration (wound closure)” value was “completely abolished cell migration”.
On to `[Na+].[Na+].[Na+].[O]=[V]([O-])([O-])[O-]` [Na-orthovanadate], for which the “tyrosine phosphorylation of β-catenin and plakoglobin” value in experiment [2] is “increased tyrosine phosphorylation”.
Regarding `COc1cccc(-c2cc(=O)c3ccccc3o2)c1N` [PD98059], in the experiment with NBT II cells [1] (setting [7]), the “effect on cell migration (wound closure)” value was “completely abolished cell migration”.
The same measure, in the same setting: then `O=c1cc(N2CCOCC2)oc2c(-c3ccccc3)cccc12` [ly295002], with “completely abolished cell migration”.
In the case of “EGF: growth factor used to induce epithelial cell migration [reference compound]”, the “free pool of β-catenin” value in experiment [3] (NBT II cells) was “increase of the free pool of β-catenin”.
Consider “hPTP LAR: full-length human PTP LAR ectopically expressed in NBT II cells by retroviral gene transfer (pLXSN)”, for which the “EMT and motility relative to vector-control infected cell lines (NBT II pLXSN)” value in the experiment with NBT II cells [4] was “about 40%”. The “tumor growth in comparison to NBT II pLXSN cells” value with NBT II cells [5] is “significantly reduced tumor growth”. Besides, in experiment [3] (NBT II-hPTP LAR-expressing cells, no Na-orthovanadate), the “tyrosine phosphorylation and increase of the free pool of β-catenin” value was “neither tyrosine phosphorylation, nor an increase in the free pool of β-catenin were detectable”. The “DNA-synthesis and proliferation rate” value in the experiment with NBT II cells [6] is listed as “not affected”.
